The text below walks through data of ChEMBL document CHEMBL1141675, “QSAR modeling of the interaction of flavonoids with GABA(A) receptor” (Eur J Med Chem, 2008).

This assay in a line: Binding affinity to GABAA receptor. Also noted: unit not given here.

`O=c1cc(-c2cccc(F)c2)oc2ccc(Br)cc12` yielded a logKi of -1.38. To `O=c1cc(-c2cccc(F)c2)oc2ccc(Cl)cc12` belongs -0.932. For the compound `O=c1cc(-c2cccc(Br)c2)oc2ccc(O)cc12`, the logKi was determined as 0.

For the compound `O=c1cc(-c2cccc(F)c2)oc2ccccc12`, the logKi is 0.55.

As to `O=c1cc(-c2ccccc2)oc2cc(O)c(O)c(O)c12`, the logKi came out at 0.747. To `O=c1cc(-c2cccc([N+](=O)[O-])c2)oc2ccc(F)cc12` belongs -0.745; to `O=c1cc(-c2ccc([N+](=O)[O-])cc2)oc2ccc(Br)cc12`, -0.699; to `Cc1cccc(-c2cc(=O)c3ccccc3o2)c1`, 1. To `O=c1cc(-c2ccccc2)oc2ccc(Br)cc12` belongs -1.16; to `O=c1cc(-c2ccc(F)cc2)oc2ccc(Br)cc12`, -0.939; to `O=c1cc(-c2cccc(Br)c2)oc2ccccc12`, -0.384. To `O=c1cc(-c2cccc(O)c2)oc2ccc(F)cc12` belongs 0.4. Regarding `O=c1cc(-c2ccccc2)oc2ccccc12`, the logKi came out at 0. To `O=c1cc(-c2ccc(Br)cc2)oc2ccc([N+](=O)[O-])cc12` belongs -1.6; to `O=c1c(O)c(-c2ccc(O)cc2)oc2cc(O)cc(O)c12`, 1.97; to `COc1ccc(-c2cc(=O)c3cc(Br)ccc3o2)cc1`, 0.322. To `Cc1cccc(-c2cc(=O)c3cc(C)ccc3o2)c1` belongs -0.682; to `COc1cccc(-c2cc(=O)c3cc(Cl)ccc3o2)c1`, -0.072; to `O=c1cc(-c2cccc([N+](=O)[O-])c2)oc2ccc(Cl)cc12`, -2.1. To `O=c1cc(-c2ccccc2)oc2ccc(O)cc12` belongs 0.422; to `O=c1cc(-c2ccccc2)oc2cc(O)ccc12`, 0.623; to `COc1cccc(-c2cc(=O)c3cc(F)ccc3o2)c1`, 0.398. In turn, `COc1c(O)c(OC)c2oc(-c3ccccc3O)cc(=O)c2c1O` returned a logKi of -2.21. As to `COc1cc2oc(-c3ccc(O)c(O)c3)cc(=O)c2c(O)c1OC`, the logKi came out at 2.3. To `O=c1cc(-c2cccc(Cl)c2)oc2ccc(Br)cc12` belongs -1.77; to `COc1cccc(-c2cc(=O)c3cc(Br)ccc3o2)c1`, -0.215. For `O=c1cc(-c2ccccc2O)oc2ccc3ccccc3c12`, the logKi is -1.57.

In turn, `COc1cccc(-c2cc(=O)c3ccccc3o2)c1` returned a logKi of 0.38. To `COc1ccccc1-c1cc(=O)c2cc(O)ccc2o1` belongs 0.976. In turn, `O=c1cc(-c2ccc(F)cc2)oc2ccccc12` gave a logKi of 0.556.

For `O=c1cc(-c2ccccc2F)oc2cc(O)cc(O)c12`, the logKi came out at 0.903.

As for `Cc1ccc2oc(-c3cccc([N+](=O)[O-])c3)cc(=O)c2c1`, the logKi is -2.25. To `O=c1cc(-c2ccc(F)cc2)oc2ccc(Cl)cc12` belongs -0.742. On to `Cc1cccc(-c2cc(=O)c3cc(Br)ccc3o2)c1`, for which the logKi was -0.812. To `Cc1ccc2oc(-c3ccccc3)cc(=O)c2c1` belongs -0.903; to `O=c1cc(-c2cccc(F)c2)oc2ccc(F)cc12`, -0.036; to `O=c1cc(-c2cccc(Br)c2)oc2ccc(Cl)cc12`, -1.64.

Turning to `O=c1cc(-c2ccccc2)oc2ccc(Cl)cc12`, the logKi was -0.785. To `O=c1cc(-c2ccccc2[N+](=O)[O-])oc2ccc(Br)cc12` belongs -0.68. To `O=c1cc(-c2ccccc2Cl)oc2cc(O)cc(O)c12` belongs 0.903; to `O=c1cc(-c2ccccc2O)oc2cc(O)ccc12`, -0.252. As to `O=c1cc(-c2cccc(Br)c2)oc2ccc(F)cc12`, the logKi is -0.627. To `O=c1cc(-c2cccc(Cl)c2)oc2ccc(Cl)cc12` belongs -1.64; to `COc1ccccc1-c1cc(=O)c2ccccc2o1`, 1.51; to `O=c1cc(-c2cccc(Br)c2)oc2ccc([N+](=O)[O-])cc12`, -1.6. To `O=c1cc(-c2ccc(F)cc2)oc2ccc(F)cc12` belongs 0.398; to `O=c1cc(-c2cccc(Cl)c2)oc2ccccc12`, -0.212. `COc1cc(O)c2c(=O)cc(-c3ccccc3)oc2c1` returned a logKi of 1.7. To `COc1c(O)c(OC)c2oc(-c3ccccc3)cc(=O)c2c1O` belongs -0.699; to `COc1ccc2oc(-c3cccc(Br)c3)cc(=O)c2c1`, 0. `O=c1cc(-c2cccc(Cl)c2)oc2ccc(F)cc12` displayed a logKi of -0.701. To `COc1c(O)cc2oc(-c3ccccc3)cc(=O)c2c1O` belongs -0.051; to `COc1cccc(O)c1-c1cc(=O)c2c(O)c(OC)c(OC)c(OC)c2o1`, -0.444. For `COc1ccc2oc(-c3ccccc3N)cc(=O)c2c1`, the logKi stood at 0.544.

With `O=c1cc(-c2cccc(Br)c2)oc2ccc(Br)cc12`, the logKi was -1.72. To `O=c1cc(-c2cccc([N+](=O)[O-])c2)oc2ccc(Br)cc12` belongs -3; to `O=c1cc(-c2ccccc2)oc2c(I)c(O)c(I)c(O)c12`, 0; to `COc1ccc2oc(-c3ccccc3)cc(=O)c2c1`, -0.066. To `O=c1cc(-c2ccccc2O)oc2ccccc12` belongs -0.678; to `COc1c(O)cc(O)c2c(=O)cc(-c3ccccc3)oc12`, 0.182.

Regarding `O=c1cc(-c2ccccc2)oc2ccc(F)cc12`, the logKi is 0.653. To `COc1c(O)cc2oc(-c3ccc(O)cc3)cc(=O)c2c1O` belongs 0; to `O=c1cc(-c2cccc(O)c2)oc2ccc(Br)cc12`, -0.22. The compound `O=c1cc(-c2cccc([N+](=O)[O-])c2)oc2ccc([N+](=O)[O-])cc12` had a logKi of -1.58.

Regarding `O=c1cc(-c2ccccc2)oc2cc(O)cc(O)c12`, the logKi was determined as 0.477. To `O=c1cc(-c2cccc([N+](=O)[O-])c2)oc2ccccc12` belongs -0.545; to `O=c1cc(-c2ccccc2F)oc2ccc(Cl)cc12`, -0.38.

With `O=c1cc(-c2ccccc2O)oc2ccc(O)cc12`, the logKi was -1.47.

For the compound `COc1ccc(-c2cc(=O)c3cc(Cl)ccc3o2)cc1`, the logKi stood at 0.097. To `COc1cc2oc(-c3ccc(O)cc3)cc(=O)c2c(O)c1OC` belongs 1.36; to `Cc1ccc2oc(-c3cccc(Br)c3)cc(=O)c2c1`, -1.89. To `O=c1cc(-c2ccccc2)oc2c(Br)c(O)c(Br)c(O)c12` belongs -0.155; to `O=c1cc(-c2ccc(O)cc2)oc2cc(O)cc(O)c12`, 0.602. On to `O=c1cc(-c2cccc(O)c2)oc2ccc(Cl)cc12`, for which the logKi was -0.07.

As for `O=c1cc(-c2ccccc2F)oc2ccc(Br)cc12`, the logKi is -0.424. Regarding `O=c1cc(-c2ccccc2O)oc2cc(O)cc(O)c12`, the logKi was -1.12. For `COc1c(O)cc2oc(-c3ccccc3O)cc(=O)c2c1O`, the logKi is -1.42. To `O=c1cc(-c2ccccc2)oc2ccc([N+](=O)[O-])cc12` belongs -0.561.
